Experiments:
human V1a receptor = human V1a receptor (Homo sapiens (Human), UniProt P37288); experiment: Cellular in vitro assay for determining vasopressin receptor activity (V1a, aequorin luminescence); assay type: cell-based; conditions: for IC50: CHO cell line transfected with human V1a receptor, [Arg8]-vasopressin at EC50 concentration, read-out: IC50 hV1a; for ratio IC50 hV2/hV1a: selectivity, IC50 hV2 divided by IC50 hV1a
Description: (§1) B-1. Cellular In Vitro Assay for Determining Vasopressin Receptor Activity
(§2) The identification of agonists and antagonists of the V1a and V2 vasopressin receptors from humans, rats and dogs as well as the quantification of the activity of the compounds of the invention is carried out using recombinant cell lines. These cell lines originally derive from a hamster's ovary epithelial cell (Chinese Hamster Ovary, CHO K1, ATCC: American Type Culture Collection, Manassas, Va. 20108, USA). The test cell lines constitutively express the human, rat or dog V1a or V2 receptors. In case of the Gαq-coupled V1a receptors, cells are also stably transfected with a modified form of the calcium-sensitive photoproteins aequorin (human and rat V1a) or obe-lin (dog V1a), which, after reconstitution with the cofactor coelenterazine, emit light when there are increases in free calcium concentrations [Rizzuto R, Simpson A W, Brini M, Pozzan T, Nature 358, 325-327 (1992); Illarionov B A, Bondar V S, Illarionova V A, Vysotski E S, Gene 153 (2), 273-274 (1995)]. The resulting vasopressin receptor cells react to stimulation of the recombinantly expressed Via receptors by intracellular release of calcium ions, which can be quantified by the resulting photoprotein luminescence. The Gs-coupled V2 receptors are stably transfected into cell lines expressing the gene for firefly luciferase under control of a CRE-responsible promoter. Activation of V2 receptors induces the activation of the CRE-responsive promoter via cAMP increase, thereby inducing the expression of firefly luciferase. The light emitted by photoproteins of V1a cell lines as well as the light emitted by firefly luciferase of V2 cell lines corresponds to the activation or inhibition of the respective vasopressin receptor. The bioluminescence of the cell lines is detected using a suitable luminometer [Milligan G, Marshall F, Rees S, Trends in Pharmacological Sciences 17, 235-237 (1996)].
Vasopressin V1a Receptor Cell Lines:
On the day before the assay, the cells are plated out in culture medium (DMEM/F12, 2% FCS, 2 mM glutamine, 10 mM HEPES, 5 μg/ml coelenterazine) in 384-well microtiter plates and kept in a cell incubator (96% humidity, 5% v/v CO2, 37° C.). On the day of the assay, test compounds in various concentrations are placed for 10 minutes in the wells of the microtiter plate before the agonist [Arg^8]-vasopressin at EC50 concentration is added. The resulting light signal is measured immediately in a luminometer.
(§3) Table 1A below lists individual IC50 values for the compounds of the invention (including racemic mixtures as well as separated enantiomers) that were obtained from cell lines transfected with the human Via or V2 receptor: […]

human V2 receptor = human V2 receptor (Homo sapiens (Human), UniProt P30518); experiment: Cellular in vitro assay for determining vasopressin receptor activity (V2, CRE-luciferase); assay type: cell-based; conditions: CHO cell line transfected with human V2 receptor; [Arg8]-vasopressin at EC50 concentration; read-out: IC50 hV2
Description: as §1, §2
Vasopressin V2 Receptor Cell Lines:
On the day before the assay, the cells are plated out in culture medium (DMEM/F12, 2% FCS, 2 mM glutamine, 10 mM HEPES) in 384-well microtiter plates and kept in a cell incubator (96% humidity, 5% v/v CO2, 37° C.). On the day of the assay, test compounds in various concentrations and the agonist [Arg^8]-vasopressin at EC50 concentration are added together to the wells, and plates are incubated for 3 hours in a cell incubator. Upon addition of the cell lysis reagent Triton™ and the substrate luciferin, luminescence of firefly luciferase is measured in a luminometer.
as §3

Sequence of human V1a receptor (P37288 whole entry): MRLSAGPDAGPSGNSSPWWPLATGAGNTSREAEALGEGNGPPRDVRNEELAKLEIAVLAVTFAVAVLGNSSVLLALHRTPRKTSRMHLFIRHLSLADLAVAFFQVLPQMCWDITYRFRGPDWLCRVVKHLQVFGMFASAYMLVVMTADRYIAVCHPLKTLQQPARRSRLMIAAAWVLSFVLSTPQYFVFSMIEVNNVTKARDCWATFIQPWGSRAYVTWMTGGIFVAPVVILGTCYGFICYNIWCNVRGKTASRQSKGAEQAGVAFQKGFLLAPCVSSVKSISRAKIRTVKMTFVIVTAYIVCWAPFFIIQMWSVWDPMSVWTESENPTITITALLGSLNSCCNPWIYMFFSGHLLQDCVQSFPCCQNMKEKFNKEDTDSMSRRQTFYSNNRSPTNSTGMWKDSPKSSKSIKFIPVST
Sequence of human V2 receptor (P30518 whole entry): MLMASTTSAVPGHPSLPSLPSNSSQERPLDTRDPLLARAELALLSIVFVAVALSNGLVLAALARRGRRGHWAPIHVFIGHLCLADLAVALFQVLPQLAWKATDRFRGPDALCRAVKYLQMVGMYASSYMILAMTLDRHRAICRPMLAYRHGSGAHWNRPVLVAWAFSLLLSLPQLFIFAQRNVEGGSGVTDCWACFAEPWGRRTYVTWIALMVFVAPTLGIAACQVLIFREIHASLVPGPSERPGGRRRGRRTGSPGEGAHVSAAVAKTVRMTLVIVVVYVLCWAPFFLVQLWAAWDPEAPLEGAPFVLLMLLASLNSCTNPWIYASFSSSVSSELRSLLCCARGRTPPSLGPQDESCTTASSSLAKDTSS

Row | Compound | IC50 (human V1a receptor) [nM] | ratio IC50 hV2/hV1a (human V1a receptor) | IC50 (human V2 receptor) [nM]
1 | CC(C)(C)OC(=O)NC1(C(=O)NC(Cn2c(-c3ccc(Cl)cc3)nn(Cc3ncn(-c4ncccc4Cl)n3)c2=O)C(F)(F)F)CC1 (racemic) [Example 26, tert-Butyl [1-({3-[3-(4-chlorophenyl)-1-{[1-(3-chloropyridin-2-yl)-1H-1,2,4-triazol-3-yl]methyl}-5-oxo-1,5-dihydro-4H-1,2,4-triazol-4-yl]-1,1,1-trifluoropropan-2-yl}carbamoyl)cyclopropyl]-carbamate] | 9.15 | 9.0 | 82.5
2 | NC1(C(=O)NC(Cn2c(-c3ccc(Cl)cc3)nn(Cc3ncn(-c4ncccc4Cl)n3)c2=O)C(F)(F)F)CC1 (racemic) [Example 27, 1-Amino-N-{3-[3-(4-chlorophenyl)-1-{[1-(3-chloropyridin-2-yl)-1H-1,2,4-triazol-3-yl]methyl}-5-oxo-1,5-dihydro-4H-1,2,4-triazol-4-yl]-1,1,1-trifluoropropan-2-yl}cyclopropanecarboxamide] | 215 | 8.8 | 1900
3 | NC1(C(=O)NC(Cn2c(-c3ccc(Cl)cc3)nn(Cc3ncn(-c4ncccc4Cl)n3)c2=O)C(F)(F)F)CCC1 (racemic) [Example 29, 1-Amino-N-{3-[3-(4-chlorophenyl)-1-{[1-(3-chloropyridin-2-yl)-1H-1,2,4-triazol-3-yl]methyl}-5-oxo-1,5-dihydro-4H-1,2,4-triazol-4-yl]-1,1,1-trifluoropropan-2-yl}cyclobutanecarboxamide] | 5.65 | 36.0 | 203
4 | O=C(CC(F)=C(F)F)NC(Cn1c(-c2ccc(Cl)cc2)nn(Cc2ncn(-c3ncccc3Cl)n2)c1=O)C(F)(F)F (racemic) [Example 31, N-{3-[3-(4-Chlorophenyl)-1-{[1-(3-chloropyridin-2-yl)-1H-1,2,4-triazol-3-yl]methyl}-5-oxo-1,5-dihydro-4H-1,2,4-triazol-4-yl]-1,1,1-trifluoropropan-2-yl}-3,4,4-trifluorobut-3-enamide] | 3.4 | 32.1 | 109
5 | O=C(NC(Cn1c(-c2ccc(Cl)cc2)nn(Cc2ncn(-c3ncccc3Cl)n2)c1=O)C(F)(F)F)[C@@H]1C[C@H](F)CN1 (mixture of isomers) [Example 48, N-{3-[3-(4-Chlorophenyl)-1-{[1-(3-chloropyridin-2-yl)-1H-1,2,4-triazol-3-yl]methyl}-5-oxo-1,5-dihydro-4H-1,2,4-triazol-4-yl]-1,1,1-trifluoropropan-2-yl}-4-fluoro-prolinamide] | 5.4 | – | 305
6 | O=C(NC(Cn1c(-c2ccc(Cl)cc2)nn(Cc2ncn(-c3ncccc3Cl)n2)c1=O)C(F)(F)F)[C@@H]1C[C@@H](F)CN1 (mixture of isomers) [Example 49, N-{3-[3-(4-Chlorophenyl)-1-{[1-(3-chloropyridin-2-yl)-1H-1,2,4-triazol-3-yl]methyl}-5-oxo-1,5-dihydro-4H-1,2,4-triazol-4-yl]-1,1,1-trifluoropropan-2-yl}-4-fluoro-prolinamide] | 3.35 | – | 378
7 | O=C(NC(Cn1c(-c2ccc(Cl)cc2)nn(Cc2ncn(-c3ncccc3Cl)n2)c1=O)C(F)(F)F)c1ccc(Cl)s1 (racemic) [Example 52, 5-Chloro-N-{3-[3-(4-chlorophenyl)-1-{[1-(3-chloropyridin-2-yl)-1H-1,2,4-triazol-3-yl]methyl}-5-oxo-1,5-dihydro-4H-1,2,4-triazol-4-yl]-1,1,1-trifluoropropan-2-yl}thiophene-2-carboxamide] | 2.8 | 167.9 | 470
8 | O=C(NC(Cn1c(-c2ccc(Cl)cc2)nn(Cc2ncn(-c3ncccc3C(F)(F)F)n2)c1=O)C(F)(F)F)C1(C(F)(F)F)CC1 (racemic) [Example 58, N-{3-[3-(4-Chlorophenyl)-5-oxo-1-({1-[3-(trifluoromethyl)pyridin-2-yl]-1H-1,2,4-triazol-3-yl}methyl)-1,5-dihydro-4H-1,2,4-triazol-4-yl]-1,1,1-trifluoropropan-2-yl}-1-(trifluoromethyl)cyclopropane-1-carboxamide] | 3 | 40.2 | 120
9 | O=C(CCC(F)(F)F)NC(Cn1c(-c2ccc(Cl)cc2)nn(Cc2ncn(-c3ncccc3C(F)(F)F)n2)c1=O)C(F)(F)F (racemic) [Example 59, N-{3-[3-(4-Chlorophenyl)-5-oxo-1-({1-[3-(trifluoromethyl)pyridin-2-yl]-1H-1,2,4-triazol-3-yl}methyl)-1,5-dihydro-4H-1,2,4-triazol-4-yl]-1,1,1-trifluoropropan-2-yl}-4,4,4-trifluorobutanamide] | 1.9 | 39.5 | 75

These reach a lower IC50 (human V1a receptor). Values come first.

Row | IC50 (human V1a receptor) [nM] | ratio IC50 hV2/hV1a (human V1a receptor) | IC50 (human V2 receptor) [nM] | Compound
10 | 1.75 | 98.6 | 172 | O=C(/C=C/C(F)(F)F)NC(Cn1c(-c2ccc(Cl)cc2)nn(Cc2ncn(-c3ncccc3Cl)n2)c1=O)C(F)(F)F (racemic) [Example 25, (2E)-N-{3-[3-(4-Chlorophenyl)-1-{[1-(3-chloropyridin-2-yl)-1H-1,2,4-triazol-3-yl]methyl}-5-oxo-1,5-dihydro-4H-1,2,4-triazol-4-yl]-1,1,1-trifluoropropan-2-yl}-4,4,4-trifluorobut-2-enamide]
11 | 1.75 | 68.6 | 120 | CS(=O)(=O)CC(=O)NC(Cn1c(-c2ccc(Cl)cc2)nn(Cc2ncn(-c3ncccc3Cl)n2)c1=O)C(F)(F)F (racemic) [Example 44, N-{3-[3-(4-Chlorophenyl)-1-{[1-(3-chloropyridin-2-yl)-1H-1,2,4-triazol-3-yl]methyl}-5-oxo-1,5-dihydro-4H-1,2,4-triazol-4-yl]-1,1,1-trifluoropropan-2-yl}-2-(methylsulfonyl)acetamide]
12 | 1.7 | 28.2 | 48 | O=C(NC(Cn1c(-c2ccc(Cl)cc2)nn(Cc2ncn(-c3ncccc3Cl)n2)c1=O)C(F)(F)F)C1CS(=O)(=O)C1 (racemic) [Example 38, N-{3-[3-(4-Chlorophenyl)-1-{[1-(3-chloropyridin-2-yl)-1H-1,2,4-triazol-3-yl]methyl}-5-oxo-1,5-dihydro-4H-1,2,4-triazol-4-yl]-1,1,1-trifluoropropan-2-yl}thietane-3-carboxamide 1,1-dioxide]
13 | 1.5 | 38.0 | 57 | O=C(NC(Cn1c(-c2ccc(Cl)cc2)nn(Cc2ncn(-c3ncccc3Cl)n2)c1=O)C(F)(F)F)C1(C(F)(F)F)CC1 (racemic) [Example 41, N-{3-[3-(4-Chlorophenyl)-1-{[1-(3-chloropyridin-2-yl)-1H-1,2,4-triazol-3-yl]methyl}-5-oxo-1,5-dihydro-4H-1,2,4-triazol-4-yl]-1,1,1-trifluoropropan-2-yl}-1-(trifluoromethyl)cyclopropane-carboxamide]
14 | 1.17 | 67.0 | 78.2 | O=C(CCC(F)(F)F)NC(Cn1c(-c2ccc(Cl)cc2)nn(Cc2ncn(-c3ncccc3Cl)n2)c1=O)C(F)(F)F (racemic) [Example 32, N-{3-[3-(4-Chlorophenyl)-1-{[1-(3-chloropyridin-2-yl)-1H-1,2,4-triazol-3-yl]methyl}-5-oxo-1,5-dihydro-4H-1,2,4-triazol-4-yl]-1,1,1-trifluoropropan-2-yl}-4,4,4-trifluorobutanamide]
